The values below come from patent publication US20100298141A1, “SUBSTITUTED PYRIDINE N-OXIDE HERBICIDES” (E. I. DU PONT DE NEMOURS AND COMPANY, priority 2007, published 2010).

The subject of one experiment is crabgrass. Briefly: Test C pre-/postemergence test. To be noted: for Plant response rating, Crabgrass, Large: 31 g ai/ha, scale 0 to 100 (0 no effect, 100 complete control). The class given is in vivo, Digitaria sanguinalis. Put shortly: (§1)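 Test chemicals were formulated with surfactant in a non-phytotoxic solvent and sprayed both on freshly planted seeds (preemergence) and on 1- to 4-leaf plants of 2–18 cm (postemergence). Flooded-paddy pots received compound directly into 3 cm of standing water, maintained for the test.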

A further experiment relates to Goosegrass. Briefly: Test C pre-/postemergence test. To be noted: for Plant response rating, Goosegrass: 31 g ai/ha, scale 0 to 100 (0 no effect, 100 complete control). The class given is in vivo, Eleusin indica. The method in brief: as §1
A further experiment has as its system wheat. Briefly: Test A pre-/postemergence greenhouse test. The class given is in vivo, Triticum aestivum. Particulars: for Plant response rating, Wheat: 0 to 100 scale where 0 is no effect and 100 is complete control; for Wheat plant response rating: 0 to 100 scale. The method in brief:
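Pre: directed soil spray on seeded loam/sand. Post: foliar spray, plants 2–10 cm, 1–2 leaf stage, applied concurrently. Vehicle: non-phytotoxic solvent + surfactant. Greenhouse ~10 d; visual injury rating vs untreated controls.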

The subject of the next experiment is umbrella sedge. Briefly: Test C flooded paddy test. To be noted: Flood. The class given is in vivo, Cyperus difformis. Put shortly:
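Compound was added to standing water 3 cm above soil, flood maintained, and plants held in a greenhouse before visual scoring against controls at 13 to 15 days.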

Where [1] appears, read: 62 g ai/ha, Preemergence, scale 0 to 100.
The mark [2] stands for this setting: 125 g ai/ha, preemergence, scale 0 (no effect) to 100 (complete control).
Where [3] appears, read: preemergence, 250 g ai/ha, scale 0 (no effect) to 100 (complete control).
The mark [4] stands for this setting: Postemergence, 500 g ai/ha, 0 is no effect, 100 is complete control.
Where [5] appears, read: Preemergence, 125 g ai/ha, 0 no effect, 100 complete control.
Where [6] appears, read: 62 g ai/ha, scale 0 to 100 (0 no effect, 100 complete control).
[7] abbreviates: 250 g ai/ha, scale 0 to 100, 0 no effect, 100 complete control, 13 to 15 days.
Where [8] appears, read: Preemergence, 500 g ai/ha, 0 no effect, 100 complete control.

`Cn1nc(C(F)(F)F)c(CS(=O)(=O)c2cccc[n+]2[O-])c1OCC(F)F` [Compound 81]: the results for the “Crabgrass, Large plant response rating” value with crabgrass (setting [1]), in the experiment on crabgrass (setting [2]) and with crabgrass (setting [3]) were 80, 98 and 98, respectively. Moreover, the “Plant response rating, Crabgrass, Large” value with crabgrass (Preemergence) turned out to be 60. The “Goosegrass plant response rating” value turned out to be 98 with Goosegrass (setting [1]), 100 with Goosegrass (setting [2]) and 100 in the experiment with Goosegrass (setting [3]). The “Plant response rating, Goosegrass” value in the experiment on Goosegrass (Preemergence) worked out at 55. The “Plant response rating, Wheat” value with wheat (Postemergence, 125 g ai/ha) was found to be 20; in the experiment on wheat (Preemergence, 500 g ai/ha) it was 80. Besides, the “Wheat plant response rating” value was 60 with wheat (setting [4]) and 10 with wheat (setting [5]). The figures for the “Plant response rating, Sedge, Umbrella” value in the experiment on umbrella sedge (setting [6]) and in the experiment on umbrella sedge (setting [7]) were 75 and 95, respectively.

With `Cn1nc(C(F)(F)C(F)(F)F)c(C[S+]([O-])c2ccc(Cl)c[n+]2[O-])c1OCC(F)(F)F` (centres unmarked) [Compound 92], the “Crabgrass, Large plant response rating” value is given as 98 with crabgrass (setting [1]), 100 in the experiment on crabgrass (setting [2]) and 100 with crabgrass (setting [3]). For the same molecule, the “Plant response rating, Crabgrass, Large” value with crabgrass (Preemergence) stood at 95. Also, the “Goosegrass plant response rating” value amounted to 90 with Goosegrass (setting [1]), 90 with Goosegrass (setting [2]) and 100 in the experiment on Goosegrass (setting [3]). The “Plant response rating, Goosegrass” value in the experiment with Goosegrass (Preemergence) was 90. The “Plant response rating, Wheat” value in the experiment on wheat (Postemergence, 125 g ai/ha) turned out to be 70. Also, the “Wheat plant response rating” value in the experiment with wheat (setting [4]) was 70; in the experiment on wheat (setting [5]) it was 70; with wheat (setting [8]) it was 90. The “Plant response rating, Sedge, Umbrella” value in the experiment on umbrella sedge (setting [6]) was 20; in the experiment with umbrella sedge (setting [7]), 100.

Take `Cc1cc[n+]([O-])c(S(=O)(=O)Cc2c(C(F)(F)F)nn(C)c2OCC(F)F)c1` [Compound 94]: the “Crabgrass, Large plant response rating” value came out at 98 with crabgrass (setting [1]), 100 in the experiment on crabgrass (setting [2]) and 100 with crabgrass (setting [3]). Moreover, in the experiment on crabgrass (Preemergence), the “Plant response rating, Crabgrass, Large” value worked out at 20. Besides, the “Goosegrass plant response rating” value with Goosegrass (setting [1]), with Goosegrass (setting [2]) and with Goosegrass (setting [3]) was 100 in each case. Besides, in the experiment on Goosegrass (Preemergence), the “Plant response rating, Goosegrass” value was determined as 95. Also, the “Plant response rating, Wheat” value in the experiment on wheat (Postemergence, 125 g ai/ha) was 60. In addition, the results for the “Wheat plant response rating” value in the experiment with wheat (setting [4]), with wheat (setting [5]) and in the experiment on wheat (setting [8]) were 80, 40 and 90, respectively. Moreover, the entries for the “Plant response rating, Sedge, Umbrella” value in the experiment with umbrella sedge (setting [6]) and in the experiment on umbrella sedge (setting [7]) were 0 and 90, respectively.

As to `Cc1cc[n+]([O-])c(S(=O)(=O)Cc2c(C(F)(F)F)nn(C)c2OC(C)C(F)(F)F)c1` (centres unmarked) [Compound 96], the “Crabgrass, Large plant response rating” value amounted to 85 in the experiment on crabgrass (setting [1]), 95 in the experiment on crabgrass (setting [2]) and 98 with crabgrass (setting [3]). Moreover, the “Plant response rating, Crabgrass, Large” value with crabgrass (Preemergence) was found to be 80. Further, the “Goosegrass plant response rating” value in the experiment with Goosegrass (setting [1]), in the experiment on Goosegrass (setting [2]) and with Goosegrass (setting [3]) was 100 throughout. Besides, the “Plant response rating, Goosegrass” value in the experiment with Goosegrass (Preemergence) is 95. The “Plant response rating, Wheat” value with wheat (Postemergence, 125 g ai/ha) is listed as 50. The “Wheat plant response rating” value with wheat (setting [4]) is 70; in the experiment with wheat (setting [5]), 20; in the experiment with wheat (setting [8]) it was 80. The results for the “Plant response rating, Sedge, Umbrella” value with umbrella sedge (setting [6]) and with umbrella sedge (setting [7]) were 0 and 75, respectively.

With `Cc1cc[n+]([O-])c(S(=O)(=O)Cc2c(C(F)(F)C(F)(F)F)nn(C)c2OCC(F)(F)F)c1` [Compound 99], the “Crabgrass, Large plant response rating” value in the experiment with crabgrass (setting [1]), in the experiment on crabgrass (setting [2]) and in the experiment on crabgrass (setting [3]) was 100 in each case. Further, the “Plant response rating, Crabgrass, Large” value in the experiment with crabgrass (Preemergence) is listed as 80. Further, the figures for the “Goosegrass plant response rating” value in the experiment with Goosegrass (setting [1]), in the experiment on Goosegrass (setting [2]) and in the experiment with Goosegrass (setting [3]) were 95, 100 and 100, respectively. The “Plant response rating, Goosegrass” value in the experiment on Goosegrass (Preemergence) was 85. Besides, in the experiment on wheat (Postemergence, 125 g ai/ha), the “Plant response rating, Wheat” value came to 50. Also, the “Wheat plant response rating” value in the experiment on wheat (setting [4]) was found to be 70; in the experiment with wheat (setting [5]) it was 50; with wheat (setting [8]), 90. Further, the results for the “Plant response rating, Sedge, Umbrella” value in the experiment with umbrella sedge (setting [6]) and in the experiment with umbrella sedge (setting [7]) were 0 and 65, respectively.

Consider `CCc1cc[n+]([O-])c([S+]([O-])Cc2c(C(F)(F)F)nn(C)c2OC(F)F)c1` (centres unmarked) [Compound 101], for which the “Crabgrass, Large plant response rating” value in the experiment on crabgrass (setting [1]) came to 85; with crabgrass (setting [2]), 95; in the experiment on crabgrass (setting [3]) it was 98. Besides, the “Plant response rating, Crabgrass, Large” value with crabgrass (Preemergence) is reported as 50. For the same molecule, the “Goosegrass plant response rating” value is 85 in the experiment with Goosegrass (setting [1]), 100 with Goosegrass (setting [2]) and 100 in the experiment on Goosegrass (setting [3]). For the same molecule, the “Plant response rating, Goosegrass” value in the experiment on Goosegrass (Preemergence) is listed as 80. Moreover, in the experiment with wheat (Postemergence, 125 g ai/ha), the “Plant response rating, Wheat” value was found to be 50. For the same molecule, the figures for the “Wheat plant response rating” value in the experiment with wheat (setting [4]), in the experiment on wheat (setting [5]) and in the experiment on wheat (setting [8]) were 60, 70 and 100, respectively. The figures for the “Plant response rating, Sedge, Umbrella” value with umbrella sedge (setting [6]) and in the experiment with umbrella sedge (setting [7]) were 0 and 90, respectively.

`CCc1cc[n+]([O-])c(S(=O)(=O)Cc2c(C(F)(F)F)nn(C)c2OC(F)F)c1` [Compound 102]: the “Crabgrass, Large plant response rating” value in the experiment on crabgrass (setting [1]) is 95; in the experiment with crabgrass (setting [2]), 95; with crabgrass (setting [3]), 100. The “Plant response rating, Crabgrass, Large” value in the experiment on crabgrass (Preemergence) was found to be 70. For the same molecule, the results for the “Goosegrass plant response rating” value in the experiment with Goosegrass (setting [1]), in the experiment on Goosegrass (setting [2]) and in the experiment on Goosegrass (setting [3]) were 98, 100 and 100, respectively. For the same molecule, the “Plant response rating, Goosegrass” value in the experiment with Goosegrass (Preemergence) stood at 85. The “Plant response rating, Wheat” value in the experiment with wheat (Postemergence, 125 g ai/ha) came to 50. Moreover, the figures for the “Wheat plant response rating” value with wheat (setting [4]), with wheat (setting [5]) and in the experiment with wheat (setting [8]) were 60, 50 and 100, respectively. For the same molecule, the entries for the “Plant response rating, Sedge, Umbrella” value in the experiment on umbrella sedge (setting [6]) and in the experiment on umbrella sedge (setting [7]) were 0 and 70, respectively.

In the case of `C#CCOc1c(CS(=O)(=O)c2cccc[n+]2[O-])c(C(F)(F)F)nn1C` [Compound 103], the figures for the “Crabgrass, Large plant response rating” value with crabgrass (setting [1]), with crabgrass (setting [2]) and in the experiment with crabgrass (setting [3]) were 98, 100 and 100, respectively. Also, in the experiment with crabgrass (Preemergence), the “Plant response rating, Crabgrass, Large” value worked out at 90. Moreover, the “Goosegrass plant response rating” value with Goosegrass (setting [1]), with Goosegrass (setting [2]) and in the experiment with Goosegrass (setting [3]) was 100 throughout. Also, the “Plant response rating, Goosegrass” value with Goosegrass (Preemergence) is 50. Besides, the “Plant response rating, Wheat” value in the experiment on wheat (Postemergence, 125 g ai/ha) is 20. Further, the “Wheat plant response rating” value in the experiment with wheat (setting [4]) was found to be 50; with wheat (setting [5]) it was 10; with wheat (setting [8]) it was 80. The “Plant response rating, Sedge, Umbrella” value in the experiment with umbrella sedge (setting [6]) is recorded as 0; in the experiment on umbrella sedge (setting [7]), 55.

With `CC(C)c1cc[n+]([O-])c([S+]([O-])Cc2c(C(F)(F)F)nn(C)c2OC(F)F)c1` (centres unmarked) [Compound 109], the “Crabgrass, Large plant response rating” value with crabgrass (setting [1]), in the experiment with crabgrass (setting [2]) and in the experiment on crabgrass (setting [3]) was 100 in each case. The “Plant response rating, Crabgrass, Large” value with crabgrass (Preemergence) is on record as 80. Further, the “Goosegrass plant response rating” value in the experiment with Goosegrass (setting [1]), in the experiment with Goosegrass (setting [2]) and in the experiment with Goosegrass (setting [3]) was 100 throughout. The “Plant response rating, Goosegrass” value in the experiment with Goosegrass (Preemergence) is recorded as 100. In addition, the “Plant response rating, Wheat” value in the experiment with wheat (Postemergence, 125 g ai/ha) is 60. Besides, the “Wheat plant response rating” value turned out to be 70 in the experiment with wheat (setting [4]), 60 with wheat (setting [5]) and 100 with wheat (setting [8]). Besides, the “Plant response rating, Sedge, Umbrella” value is given as 0 with umbrella sedge (31 g ai/ha, scale 0 to 100 (0 no effect, 100 complete control)); 0 in the experiment with umbrella sedge (setting [6]); 50 with umbrella sedge (125 g ai/ha, scale 0 to 100, 0 no effect, 100 complete control, 13 to 15 days); 75 with umbrella sedge (setting [7]).
